Experimental data as given in PubChem BioAssay AID1963841 (Molecular Pharmacology Branch, DTP, NCI, 2024).

Tested on: 439559-082-T-J2-PDC spheroid viability
Test: Anticancer human tumor 439559-082-T-J2-PDC patient-derived colon adenocarcinoma cell line growth inhibition [POLQ]
Details: spheroids with HUVEC and MSC; for IC50: curve of first compound; for viability, T/C: stronger effect = lower value
Procedure, shortened: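 Three-cell-type spheroids modelling solid tumor plus stroma served as the readout system; POL inhibitors were tested individually and in combination, concentration ranges set by clinical Cmax where known.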

[1] = second compound 0.0316 µM, first compound 0.0316 µM
[2] = second compound 0.0316 µM, first compound 0.1 µM
[3] = second compound 0.0316 µM, first compound 0.316 µM
[4] = second compound 0.0316 µM, first compound 1 µM
[5] = second compound 0.0316 µM, first compound 3.16 µM
[6] = second compound 0.0316 µM, first compound 10 µM
[7] = second compound 0.1 µM, first compound 0.0316 µM
[8] = second compound 0.1 µM, first compound 0.1 µM
[9] = second compound 0.1 µM, first compound 0.316 µM
[10] = second compound 0.1 µM, first compound 1 µM
[11] = second compound 0.1 µM, first compound 3.16 µM
[12] = second compound 0.1 µM, first compound 10 µM
[13] = second compound 0.316 µM, first compound 0.0316 µM
[14] = second compound 0.316 µM, first compound 0.1 µM
[15] = second compound 0.316 µM, first compound 0.316 µM
[16] = second compound 0.316 µM, first compound 1 µM
[17] = second compound 0.316 µM, first compound 3.16 µM
[18] = second compound 0.316 µM, first compound 10 µM
[19] = second compound 1 µM, first compound 0.0316 µM
[20] = second compound 1 µM, first compound 0.1 µM
[21] = second compound 1 µM, first compound 0.316 µM
[22] = second compound 1 µM, first compound 1 µM
[23] = second compound 1 µM, first compound 3.16 µM
[24] = second compound 1 µM, first compound 10 µM
[25] = second compound 3.16 µM, first compound 0.0316 µM
[26] = second compound 3.16 µM, first compound 0.1 µM
[27] = second compound 3.16 µM, first compound 0.316 µM
[28] = second compound 3.16 µM, first compound 1 µM
[29] = second compound 3.16 µM, first compound 3.16 µM
[30] = second compound 3.16 µM, first compound 10 µM
[31] = second compound 10 µM, first compound 0.0316 µM
[32] = second compound 10 µM, first compound 0.1 µM
[33] = second compound 10 µM, first compound 0.316 µM
[34] = second compound 10 µM, first compound 1 µM
[35] = second compound 10 µM, first compound 3.16 µM
[36] = second compound 10 µM, first compound 10 µM
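Note: spheroids exposed to compounds for seven days before readout.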
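Throughout, for viability, T/C: 100% = DMSO vehicle control viability.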

CCc1cc2c(N3CCc4c(cc(Cn5ccnc5)cc4-c4cn(C)nc4C(F)(F)F)C3=O)ccnc2c(OC)n1 + Nc1ccc(C#CCN(C(=O)Cc2ncc(C(F)(F)F)cc2C(F)(F)F)c2ccc(F)cc2)nn1
IC50 (second compound 0.0316 µM): > 10 µM | IC50 (second compound 0.1 µM): > 10 µM | IC50 (second compound 0.316 µM): > 10 µM | IC50 (second compound 1 µM): > 10 µM | IC50 (second compound 3.16 µM): > 10 µM | IC50 (second compound 10 µM): > 10 µM | viability, T/C [1]: 98% | viability, T/C [2]: 94.8% | viability, T/C [3]: 93.3% | viability, T/C [4]: 89.9% | viability, T/C [5]: 83% | viability, T/C [6]: 84% | viability, T/C [7]: 90.6% | viability, T/C [8]: 101% | viability, T/C [9]: 86% | viability, T/C [10]: 86.2% | viability, T/C [11]: 96.5% | viability, T/C [12]: 95.6% | viability, T/C [13]: 102% | viability, T/C [14]: 105% | viability, T/C [15]: 86.5% | viability, T/C [16]: 97.2% | viability, T/C [17]: 93.7% | viability, T/C [18]: 86.9% | viability, T/C [19]: 88.7% | viability, T/C [20]: 95.8% | viability, T/C [21]: 86.5% | viability, T/C [22]: 88.5% | viability, T/C [23]: 95.1% | viability, T/C [24]: 80.5% | viability, T/C [25]: 104% | viability, T/C [26]: 102% | viability, T/C [27]: 95% | viability, T/C [28]: 82.7% | viability, T/C [29]: 88.8% | viability, T/C [30]: 78.7% | viability, T/C [31]: 98.9% | viability, T/C [32]: 91.8% | viability, T/C [33]: 92.2% | viability, T/C [34]: 93.9% | viability, T/C [35]: 91.7% | viability, T/C [36]: 84.7%

O=C(Nc1ccc(O)c(NS(=O)(=O)c2ccc(F)cc2)c1)c1ccc(-c2ccccc2)cc1 + Nc1ccc(C#CCN(C(=O)Cc2ncc(C(F)(F)F)cc2C(F)(F)F)c2ccc(F)cc2)nn1
IC50 (second compound 0.0316 µM): > 10 µM | IC50 (second compound 0.1 µM): > 10 µM | IC50 (second compound 0.316 µM): > 10 µM | IC50 (second compound 1 µM): > 10 µM | IC50 (second compound 3.16 µM): > 10 µM | IC50 (second compound 10 µM): > 10 µM | viability, T/C [1]: 93% | viability, T/C [2]: 97.5% | viability, T/C [3]: 98.8% | viability, T/C [4]: 93.3% | viability, T/C [5]: 96.3% | viability, T/C [6]: 103% | viability, T/C [7]: 99% | viability, T/C [8]: 103% | viability, T/C [9]: 92.9% | viability, T/C [10]: 97% | viability, T/C [11]: 111% | viability, T/C [12]: 106% | viability, T/C [13]: 105% | viability, T/C [14]: 104% | viability, T/C [15]: 94.8% | viability, T/C [16]: 96.9% | viability, T/C [17]: 87.9% | viability, T/C [18]: 92.5% | viability, T/C [19]: 93.5% | viability, T/C [20]: 103% | viability, T/C [21]: 89.7% | viability, T/C [22]: 90.7% | viability, T/C [23]: 99.6% | viability, T/C [24]: 96.8% | viability, T/C [25]: 89.6% | viability, T/C [26]: 107% | viability, T/C [27]: 100% | viability, T/C [28]: 99.6% | viability, T/C [29]: 94.2% | viability, T/C [30]: 91.3% | viability, T/C [31]: 114% | viability, T/C [32]: 101% | viability, T/C [33]: 102% | viability, T/C [34]: 91.5% | viability, T/C [35]: 113% | viability, T/C [36]: 101%

O=C(c1cc(Cc2n[nH]c(=O)c3ccccc23)ccc1F)N1CCN(C(=O)C2CC2)CC1 + COC1C(OC(N)=O)C(O)C(Oc2ccc3c(O)c(NC(=O)c4ccc(O)c(CC=C(C)C)c4)c(=O)oc3c2C)OC1(C)C
IC50 (second compound 0.0316 µM): > 10 µM | IC50 (second compound 0.1 µM): > 10 µM | IC50 (second compound 0.316 µM): > 10 µM | IC50 (second compound 1 µM): > 10 µM | IC50 (second compound 3.16 µM): > 10 µM | IC50 (second compound 10 µM): > 10 µM | viability, T/C [1]: 101% | viability, T/C [2]: 106% | viability, T/C [3]: 94.4% | viability, T/C [4]: 100% | viability, T/C [5]: 106% | viability, T/C [6]: 97.4% | viability, T/C [7]: 105% | viability, T/C [8]: 102% | viability, T/C [9]: 100% | viability, T/C [10]: 96.4% | viability, T/C [11]: 105% | viability, T/C [12]: 98.1% | viability, T/C [13]: 102% | viability, T/C [14]: 104% | viability, T/C [15]: 98.9% | viability, T/C [16]: 92.9% | viability, T/C [17]: 107% | viability, T/C [18]: 97.8% | viability, T/C [19]: 108% | viability, T/C [20]: 102% | viability, T/C [21]: 100% | viability, T/C [22]: 106% | viability, T/C [23]: 107% | viability, T/C [24]: 100% | viability, T/C [25]: 107% | viability, T/C [26]: 109% | viability, T/C [27]: 94.9% | viability, T/C [28]: 97% | viability, T/C [29]: 105% | viability, T/C [30]: 92.1% | viability, T/C [31]: 97.7% | viability, T/C [32]: 99.3% | viability, T/C [33]: 102% | viability, T/C [34]: 102% | viability, T/C [35]: 116% | viability, T/C [36]: 91.4%

CC(C)n1c(=O)n(C)c2cnc3cc(F)c(-c4ccc(OCCCN5CCCCC5)nc4)cc3c21 + COC1C(OC(N)=O)C(O)C(Oc2ccc3c(O)c(NC(=O)c4ccc(O)c(CC=C(C)C)c4)c(=O)oc3c2C)OC1(C)C
IC50 (second compound 0.0316 µM): > 10 µM | IC50 (second compound 0.1 µM): > 10 µM | IC50 (second compound 0.316 µM): > 10 µM | IC50 (second compound 1 µM): > 10 µM | IC50 (second compound 3.16 µM): > 10 µM | IC50 (second compound 10 µM): > 10 µM | viability, T/C [1]: 97.8% | viability, T/C [2]: 102% | viability, T/C [3]: 109% | viability, T/C [4]: 116% | viability, T/C [5]: 113% | viability, T/C [6]: 102% | viability, T/C [7]: 111% | viability, T/C [8]: 109% | viability, T/C [9]: 110% | viability, T/C [10]: 119% | viability, T/C [11]: 102% | viability, T/C [12]: 99.4% | viability, T/C [13]: 119% | viability, T/C [14]: 109% | viability, T/C [15]: 109% | viability, T/C [16]: 112% | viability, T/C [17]: 107% | viability, T/C [18]: 91.2% | viability, T/C [19]: 110% | viability, T/C [20]: 111% | viability, T/C [21]: 111% | viability, T/C [22]: 109% | viability, T/C [23]: 110% | viability, T/C [24]: 95% | viability, T/C [25]: 105% | viability, T/C [26]: 107% | viability, T/C [27]: 106% | viability, T/C [28]: 112% | viability, T/C [29]: 111% | viability, T/C [30]: 97.6% | viability, T/C [31]: 103% | viability, T/C [32]: 96.9% | viability, T/C [33]: 106% | viability, T/C [34]: 106% | viability, T/C [35]: 113% | viability, T/C [36]: 102%
